The target of the experiment is T1, sBAD (formerly sHbaR); LexA-HbaR ligand-binding domain-B112 synthetic transcription factor (Rhodopseudomonas palustris, UniProt Q9RFR5).
T1 construct: expressed in S. cerevisiae CEN.PK 2C-1
T1 sequence (Q9RFR5 1-241 limits assumed): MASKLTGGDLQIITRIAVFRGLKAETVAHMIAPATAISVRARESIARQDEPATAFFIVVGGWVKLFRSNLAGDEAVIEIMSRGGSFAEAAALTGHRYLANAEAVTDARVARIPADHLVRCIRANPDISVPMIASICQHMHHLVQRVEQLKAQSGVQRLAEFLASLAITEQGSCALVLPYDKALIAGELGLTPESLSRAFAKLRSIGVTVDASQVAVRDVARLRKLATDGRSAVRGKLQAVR
Description: mCitrine reporter activation in yeast, flow cytometry, dose-response. It counts as cell-based, Saccharomyces cerevisiae. An excerpt:
mCitrine reporter activation in yeast, flow cytometry, dose-response on sBAD (formerly sHbaR); LexA-HbaR ligand-binding domain-B112 synthetic transcription factor
On the technique in general: A flow cytometer gives signals particle by particle.

Four compounds from paper PMC6959289, “Development of a Biosensor for Detection of Benzoic Acid Derivatives in Saccharomyces cerevisiae” (Frontiers in Bioengineering and Biotechnology, 2020) can be followed below.

Molecules are shown by their SMILES.

For orientation: EC50 means the midpoint of the concentration-response curve. High values mean weaker potency, low ones greater potency. Take `O=C(O)c1ccc(O)cc1` [HBA, 4-hydroxybenzoic acid]: a half-maximal response (EC50) required 749 ± 399 µM.

For the compound `O=C(O)c1ccccc1` [benzoic acid], it took 47 ± 20 µM to reach a half-maximal effect (EC50).

Regarding `Nc1ccc(C(=O)O)cc1` [pABA, 4-aminobenzoic acid], a half-maximal effect (EC50) was put at 169 ± 81 µM.

As to `CC(=O)Oc1ccccc1C(=O)O` [aspirin], the half-maximal effective concentration (EC50) was 598 ± 283 µM.
